No end group written: not given here.
Experiments:
GluN1-GluN2A receptors = conditions: channel blocker; ref Wang et al., 2021; cited from earlier work
GluN1-GluN2B = target: T1, GluN1-GluN2B (Rattus norvegicus, UniProt P35439+Q00960); assay type: cell-based
T1 construct: GFP (N); expressed in transfected cells; host or cells: HEK-293T

NMDARs = test system: NMDARs; parameters: method as in 3 sources, one per row (each row's own in cited_ref): ref Johnson and Ascher, 1987 ||| ref Chopra et al., 2015 ||| ref Lerma, 1992; conditions: cited from earlier work
GluN1-GluN2B^ΔNTD = test: whole-cell patch clamp, ifenprodil inhibition of NTD-deleted GluN1-GluN2B; assay type: cell-based; conditions: 10 µM ifenprodil co-applied with agonists; HEK-293
[1] = test system: synaptic NMDARs, cultured hippocampal neurons; assay type: cell-based, rat
[2] = test system: triheteromeric NMDARs (GluN1, GluN2A, GluN2B); conditions: cited from earlier work
[3] = test system: GluN2B-containing di-heteromers; conditions: ref Kellner and Berlin, 2024; cited from earlier work

T1 sequence (Q00960 27-1482, other chains not shown): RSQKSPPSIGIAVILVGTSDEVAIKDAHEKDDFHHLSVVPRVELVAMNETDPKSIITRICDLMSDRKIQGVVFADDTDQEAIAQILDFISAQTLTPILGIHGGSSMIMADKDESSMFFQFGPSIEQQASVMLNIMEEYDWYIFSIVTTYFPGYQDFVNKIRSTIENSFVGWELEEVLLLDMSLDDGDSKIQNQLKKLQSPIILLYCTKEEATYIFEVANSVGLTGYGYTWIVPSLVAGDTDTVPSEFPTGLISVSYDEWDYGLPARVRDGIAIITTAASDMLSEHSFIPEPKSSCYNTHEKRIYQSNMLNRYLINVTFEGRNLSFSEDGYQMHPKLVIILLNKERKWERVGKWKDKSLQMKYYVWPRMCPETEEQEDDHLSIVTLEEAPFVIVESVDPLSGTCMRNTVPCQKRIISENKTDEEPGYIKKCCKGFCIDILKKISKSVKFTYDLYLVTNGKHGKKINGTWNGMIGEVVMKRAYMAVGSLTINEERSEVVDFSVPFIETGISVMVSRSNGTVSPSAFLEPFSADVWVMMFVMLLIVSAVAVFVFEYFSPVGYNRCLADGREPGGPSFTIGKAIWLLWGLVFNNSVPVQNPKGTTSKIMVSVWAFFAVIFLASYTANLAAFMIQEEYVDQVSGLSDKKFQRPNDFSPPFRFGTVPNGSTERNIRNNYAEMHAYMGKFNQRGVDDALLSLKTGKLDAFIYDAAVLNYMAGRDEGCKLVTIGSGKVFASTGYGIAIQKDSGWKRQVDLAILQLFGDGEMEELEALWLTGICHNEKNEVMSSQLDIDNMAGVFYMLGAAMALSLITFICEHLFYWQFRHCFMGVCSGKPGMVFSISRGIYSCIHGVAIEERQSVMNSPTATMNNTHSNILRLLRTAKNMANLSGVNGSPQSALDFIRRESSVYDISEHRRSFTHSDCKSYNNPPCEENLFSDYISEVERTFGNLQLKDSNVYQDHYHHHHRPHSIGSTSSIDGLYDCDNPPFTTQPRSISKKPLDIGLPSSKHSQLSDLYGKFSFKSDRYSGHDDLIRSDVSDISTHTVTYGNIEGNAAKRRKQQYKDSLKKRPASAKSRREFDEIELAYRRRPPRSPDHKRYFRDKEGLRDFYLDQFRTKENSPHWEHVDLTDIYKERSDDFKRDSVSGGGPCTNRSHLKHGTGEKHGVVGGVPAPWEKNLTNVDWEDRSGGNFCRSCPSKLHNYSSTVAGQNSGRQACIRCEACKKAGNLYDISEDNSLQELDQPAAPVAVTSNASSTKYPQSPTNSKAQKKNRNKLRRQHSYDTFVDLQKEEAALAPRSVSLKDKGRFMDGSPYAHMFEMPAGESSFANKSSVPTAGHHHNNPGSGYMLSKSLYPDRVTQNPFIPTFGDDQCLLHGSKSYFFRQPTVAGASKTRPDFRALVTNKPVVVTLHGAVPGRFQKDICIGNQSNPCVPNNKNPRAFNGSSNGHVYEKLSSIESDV

Nc1c2ccccc2nc2ccccc12 [9-aminoacridine]
current following removal (GluN1-GluN2A receptors): a transient inward current

N[C@@H](CCC(=O)O)C(=O)O [glutamate, L-glutamate, reference compound]
response to glutamate alone (GluN1-GluN2B): generated a significant current response
activation by glutamate alone (NMDARs; ref Johnson and Ascher, 1987): slightly activate the channel

CC(C(O)c1ccc(O)cc1)N1CCC(Cc2ccccc2)CC1 (stereo not shown) [ifenprodil]
inhibition of agonist-evoked current (GluN1-GluN2B^ΔNTD): no inhibitory effect was observed

CC12CC3CC(C)(C1)CC(N)(C3)C2 [memantine]
effect on EPSCs [1]: abolished
affinity for triheteromeric NMDARs ([2]; compared to NMDARs containing only GluN2B, ref Chen et al., 2020): lower affinity for triheteromeric NMDARs

NCCCNCCCCNCCCN [spermine]
potentiation of GluN2B-containing di-heteromers [3]: strongly potentiates GluN2B-containing di-heteromers
enhancement of triheteromeric NMDARs ([2]; ref Kellner and Berlin, 2024): fails to enhance triheteromeric NMDARs

Con-G: marine cone snail toxin, NMDAR antagonist targeting the GluN2B ligand binding domain (GEEELQENQELIREKSN; not fully specified (residues 3, 4, 7, 10, 14, C-terminus); ends and bridges not checked; UniProt P07231 81-97, looked up)
NMDAR activity (NMDARs): NMDAR antagonist

pregnenolone sulfate
tail-like response on removal of modulator (NMDARs): tail-like response
